The record followed here is ChEMBL document CHEMBL1287665, “Design, synthesis and inhibitory effect of pentapeptidyl chloromethyl ketones on proteinase K” (Bioorg Med Chem, 2010).

Common to all, as to settings: Parengyodontium album
The target in assay [1] is Proteinase K (Engyodontium album) (UniProt P06873). As to the kind of experiment: Inhibition of Engyodontium album proteinase K proteolytic activity in human HeLa cell lysate using beta-actin primer/probes of TaqMan gene expression Cells-to-CT kit at 0.5 mM after 60 mins by qRT-PCR analysis. It is filed as cell-free. (Quantitative PCR measures a nucleic acid by following its amplification.)

The target is the same in assay [2]. In words: Inhibition of Engyodontium album proteinase K proteolytic activity assessed as digestion of bovine serum albumin at 0.75 mM after 10 mins using coomassie blue staining by protein gel analysis.
The target is the same in assay [3]. As to the kind of experiment: Inhibition of Engyodontium album proteinase K proteolytic activity in human HeLa cell lysate using beta-actin primer/probes of TaqMan gene expression Cells-to-CT kit at 0.10 mM after 60 mins by qRT-PCR analysis. The assay is classed as cell-free.
For assay [4] the target is unchanged. As to the kind of experiment: Ratio of compound to MeO-Suc-AAAPV-CH2Cl for inhibition of Engyodontium album proteinase K proteolytic activity assessed as concentration required to obtain cycle threshold 26 using TaqMan gene expression Cells-to-CT kit after 60 mins by RT-PCR analysis.
For assay [5] the target is unchanged. As to the kind of experiment: Inhibition of Engyodontium album proteinase K proteolytic activity assessed as concentration required to obtain cycle threshold 26 using TaqMan gene expression Cells-to-CT kit after 60 mins by qRT-PCR analysis.
Assay [6] has the same target. As to the kind of experiment: Inhibition of Engyodontium album proteinase K proteolytic activity assessed as digestion of bovine serum albumin at 0.25 mM after 10 mins using coomassie blue staining by protein gel analysis.

SMILES strings stand for the structures. Activity calls are given as the source filed them.

Sequence of Proteinase K (Engyodontium album) (P06873 whole entry): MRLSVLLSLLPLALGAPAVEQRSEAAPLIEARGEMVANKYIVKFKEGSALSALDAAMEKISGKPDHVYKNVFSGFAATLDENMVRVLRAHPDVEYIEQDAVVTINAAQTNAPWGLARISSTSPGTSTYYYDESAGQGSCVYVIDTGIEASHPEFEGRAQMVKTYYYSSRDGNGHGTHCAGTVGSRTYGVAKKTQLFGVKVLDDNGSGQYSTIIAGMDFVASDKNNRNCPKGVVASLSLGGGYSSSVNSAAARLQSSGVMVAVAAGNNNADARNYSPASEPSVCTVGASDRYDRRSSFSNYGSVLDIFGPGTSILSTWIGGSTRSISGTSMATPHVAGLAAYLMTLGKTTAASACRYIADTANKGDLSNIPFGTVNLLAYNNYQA

As for `COC(=O)CCC(=O)N[C@@H](C)C(=O)N[C@H](C)C(=O)N[C@@H](C)C(=O)N1CCC[C@H]1C(=O)N[C@@H](C(=O)CCl)C(C)C`, the inhibition result in assay [1] was “Active”. Moreover, the inhibition entry in assay [2] was “inactive”.
As for `COC(=O)CCC(=O)N[C@@H](C)C(=O)N[C@H](C)C(=O)N[C@@H](C)C(=O)N1CCC[C@H]1C(=O)N[C@H](Cc1ccccc1)C(=O)CCl`, the inhibition result in assay [3] and in assay [6] was “Active” throughout. Besides, the Ratio in assay [4] was determined as 7.5. For the same compound, the Activity in assay [5] was 0.1 mM.
